Series [1] in a line: Mouse single-dose plasma pharmacokinetics. The class given is in vivo. The conditions noted are these: for AUC(0-t) / Cmax / Tmax / AUC(0-inf) / half-life / bioavailability / AUC0–24: plasma; for bioavailability: fexinidazole 25 mg/kg po vs 1 mg/kg iv. As to the method:
Blood samples were taken via into heparinised collection tubes and, following centrifugation, plasma was removed and stored frozen until required for assay.
All PK evaluations were carried out using validated high performance liquid chromatography (HPLC) and LC-MS assays, as per standard operating procedures of the laboratories involved.
One mouse PK and brain sampling study was carried out by BioDynamics Ltd., Rushden, UK, according to internal Standard Operating Procedures as a non-GLP regulated study, and animals were maintained as required by the “Code of practice for the housing and care of animals used in scientific procedures” (Home Office, London, 1989).
BioDynamics Study No: DND/01
Two groups of female mice were dosed as follows:
Number Treatment Dose (mg/kg) Route
All doses are expressed as free base
Intravenous doses were administered into a lateral tail vein using an appropriately sized syringe and 25G needle and the oral formulation by oral gavage using a polypropylene gavage tube. All doses were given as a single bolus dose at a constant dose volume of 10.0 mL/kg.
1.6 Blood sample collection
At each sampling time point, three animals in each treatment group were deeply anaesthetised using isoflurane and blood samples (approximately 1 mL) taken into individual heparinised tubes by cardiac puncture, following which the animals were killed by cervical fracture. Samples were collected at the following times post-dose:
Following collection, the blood samples were centrifuged (approximately 10000 g, 2 min at 4 °C) and the plasma retained as one aliquot at approximately -70°C prior to analysis of test material concentrations at BioDynamics by LC-MS/MS.
1.7 Collection of terminal brain samples
Following collection of the terminal blood sample the cranium of each mouse was carefully opened and the brain removed. Excess blood was washed from the brain with distilled water and any excess fluid blotted on absorbent paper. The brain was then snap frozen using liquid nitrogen and placed into a suitably labelled container and stored frozen at approximately -70°C pending analysis.
All of the plasma samples together with the brains from the 15 minute time point were analysed for concentrations of the test material and its sulfone and sulfoxide metabolites. In addition the brains from the 5 and 30 minute time points for the intravenously treated and the 30 and 60 minute time points for the orally treated animals were analysed for concentrations of Fexinidazole and its sulfone and sulfoxide metabolites using an LC-MS/MS method developed at BioDynamics.
All samples were treated as temperature sensitive. Blood samples were collected onto wet ice, followed by centrifugation at 4 °C. Plasma and brain samples were snap frozen on dry ice (plasma) or liquid nitrogen (brains) prior to long term storage at less than -70 °C pending analysis.
Summed transitions were used to enhance sensitivity. No instability of the test materials was noted during the course of analysis or on re-injection of the samples into the mass spectrometer under the […]
3. Pharmacokinetic analysis
The plasma concentration vs time curves obtained following intravenous and oral administration of the test compounds to female mice were analysed using WinNonLin (Version 4.1, Scientific Consulting
Inc. USA). The kinetic data were characterised by a non-compartmental analysis (NCA).
The following pharmacokinetic parameters were derived from the profiles: maximum peak plasma concentration (Cmax); the time of maximum observed concentration (Tmax); the terminal half life (T½), and area under the plasma concentration curve (AUC), 3.1.1 Area under the curve (AUC)
The AUC was determined using the linear/log trapezoidal method. A value of zero was used for any plasma concentrations recorded as below the limits of quantification (LLOQ). The AUCinf (observed) was calculated as the area under the curve from the time of dosing extrapolated to time infinity based on the observed concentrations. The AUClast was also determined. […]

For series [2], the system named is T. b. rhodesiense (STIB 900). Kind of series: In vitro trypanocidal assay (Alamar Blue). The class given is cell-based, Trypanosoma brucei rhodesiense. The settings on record: Trypanosoma brucei, 72 h; read-out: IC50. As to the method:
10 µL of Alamar Blue was added for the final 3 h to determine viability. […] The IC50 values were calculated from the sigmoidal inhibition curves. For cytotoxicity, 4×10^4/mL L-6 rat skeletal myoblast cells were used, and incubations and assessments carried out as above.

Where [3] appears, read: female, NMRI, mouse, iv, 1 mg/kg, fexinidazole 1 mg/kg iv, read-out: AUC0-24.
The mark [4] stands for this setting: female, NMRI, mouse, iv, 1 mg/kg, fexinidazole 1 mg/kg iv, read-out: Cmax.
Where [5] appears, read: female, NMRI, mouse, po, 25 mg/kg, fexinidazole 25 mg/kg po, read-out: AUC0–24.
Where [6] appears, read: female, NMRI, mouse, fexinidazole 1 mg/kg iv.
[7] abbreviates: female, NMRI, mouse, fexinidazole 25 mg/kg po.
[8] abbreviates: female, NMRI, mouse, po, 25 mg/kg, fexinidazole 25 mg/kg po, female NMRI mice, read-out: Cmax.

Where “and” joins values, the source holds several entries; their conditions need not be identical. Equal entries are not always repeated. Where two headings read alike, the source gives them in different places.

For the compound `Cn1c([N+](=O)[O-])cnc1COc1ccc(S(C)(=O)=O)cc1` [Fexinidazole sulfone], the AUC(0-t) stood at 7990 ng·h/mL in series [1] (setting [3]) and 96300 ng·h/mL in series [1] (setting [5]). Moreover, the peak concentration (Cmax) is 511 ng/mL in series [1] (setting [4]); 790.4 ng/mL in series [1] (fexinidazole 1 mg/kg iv); 13651.3 ng/mL in series [1] (fexinidazole 25 mg/kg po, female NMRI mice, listed as Sulfone); 13651 ng/mL in series [1] (fexinidazole 25 mg/kg po, female NMRI mice, listed as Sulfone metabolite); 6599.6 ng/mL in series [1] (fexinidazole 25 mg/kg po, female NMRI mice, listed as sulfone). In addition, the figures for the Tmax in series [1] (setting [6]) and in series [1] (setting [7]) were 120 min and 240 min, respectively. The AUC(0-inf) in series [1] (setting [7]) is 96300 ng·h/mL. This compound also had a half-life in series [1] (setting [7]) of 102 min. Besides, the bioavailability in series [1] (female, NMRI, mouse) worked out at 48.8%. Also, in series [1] (fexinidazole 25 mg/kg po, listed as Sulfone metabolite), the “AUC0–24” value came out at 96286 ng·h/mL. In series [2], the concentration for half-maximal inhibition (IC50) was 0.35 µg/mL to 0.4 µg/mL and 1.14 µM to 1.3 µM.

With `Cn1c([N+](=O)[O-])cnc1COc1ccc([S+](C)[O-])cc1` (centres unmarked) [Fexinidazole sulfoxide], the AUC(0-t) in series [1] (setting [3]) stood at 1590 ng·h/mL; in series [1] (setting [5]), 45000 ng·h/mL. Also, the Cmax in series [1] (setting [4]) stood at 918 ng/mL; in series [1] (setting [8]), 14200 ng/mL. Besides, the AUC(0-inf) is 1560 ng·h/mL in series [1] (setting [6]) and 45000 ng·h/mL in series [1] (setting [7]). Also, the Tmax in series [1] (setting [6]) was found to be 15 min; in series [1] (setting [7]), 30 min. For the same compound, the half-life in series [1] (setting [6]) is 36 min; in series [1] (setting [7]) it was 60 min. For the same compound, the “AUC0–24” value in series [1] (fexinidazole 25 mg/kg po, listed as Sulfoxide metabolite) stood at 45031 ng·h/mL. Besides, in series [2], the IC50 is 0.41 µg/mL to 0.49 µg/mL and 1.33 µM to 1.65 µM.

As to `CSc1ccc(OCc2ncc([N+](=O)[O-])n2C)cc1` [Fexinidazole, 1-methyl-2-((p-(methylthio)phenoxy)methyl)-5-nitroimidazole], the clinical signs entry in series [1] (1 mg/kg iv or 25 mg/kg po) was “No clinical signs were observed”. For the same compound, the figures for the AUC(0-t) in series [1] (setting [3]) and in series [1] (setting [5]) were 41 ng·h/mL and 424 ng·h/mL, respectively. For the same compound, the Cmax in series [1] (setting [4]) stood at 164 ng/mL; in series [1] (setting [8]), 500 ng/mL; in series [1] (fexinidazole 25 mg/kg po, female NMRI mice), 500 ng/mL. Also, the AUC(0-inf) turned out to be 42 ng·h/mL in series [1] (setting [6]) and 439 ng·h/mL in series [1] (setting [7]). Further, the Tmax in series [1] (setting [6]) was 5 min; in series [1] (setting [7]), 15 min. The half-life is 6 min in series [1] (setting [6]) and 48 min in series [1] (setting [7]). In addition, the bioavailability turned out to be 41.4% in series [1] (female, NMRI, mouse) and 41% in series [1] (female, mouse). For the same compound, the IC50 in series [2] is 0.48 µg/mL to 0.82 µg/mL and 1.71 µM to 2.93 µM.

For the origin of these results see PMC3006138, “Fexinidazole – A New Oral Nitroimidazole Drug Candidate Entering Clinical Development for the Treatment of Sleeping Sickness” (PLoS Neglected Tropical Diseases, 2010).
